Usually IC50 stands for the concentration needed to halve the response being measured.

The values below come from US20230339952A1, “MACROCYCLIC HETEROCYCLES AND USES THEREOF” (Kumquat Biosciences Inc., priority 2022, published 2023).

Each structure is given as a SMILES string. Where two headings read alike, the source gives them in different places. A value given as a limit tells only on which side of the number the result lay.

One series has as its target SOS1 (Homo sapiens (Human), UniProt Q07889). As to the kind of experiment: Ras-SOS interaction assay (HTRF), K-Ras G13D utilized. The format is binding. The note with it: K-Ras G13D.
Series [1] concerns NCI-H1975 (ATCC CRL-5908) cell line comprising an EGFR T790M L858R double mutation. As to the kind of experiment: EGFR-SOS cellular inhibition assay (CellTiter-Glo cell proliferation). The series is classed as cell-based. The note with it: Homo sapiens.
Method: A CellTiter-Glo (CTG) luminescent based assay (Promega) is used to assess growth of the cells, as a measurement of the ability of the compounds herein to inhibit EGFR signaling in the cells. […] The day after plating, cells are treated with a dilution series (e.g., a 9 point 3-fold dilution series) of the compounds herein (e.g., approximately 125 μL final volume per well).
Series [2] has as its system MIA PaCa-2 cells (K-Ras G12C). The series is described as follows: Ras-SOS cellular growth inhibition assay (CellTiter-Glo). To be noted: Homo sapiens, MIA PaCa-2, 120 h, read-out: IC50 in inhibiting MIA PaCa-2 cell growth.
Method: A CellTiter-Glo (CTG) luminescent based assay (Promega) is used to assess growth of the cells, as a measurement of the ability of the compounds herein to inhibit Ras signaling in the cells. […] The day after plating, cells are treated with a dilution series (e.g., a 9 point 3-fold dilution series) of the compounds herein (e.g., approximately 125 μL final volume per well). Cell viability can be monitored (e.g., approximately 5 days later) according to the manufacturer's recommended instructions, where the CellTiter-Glo reagent is added (e.g., approximately 65 μL), vigorously mixed, covered, and placed on a plate shaker (e.g., approximately for 20 min) to ensure sufficient cell lysis prior to assessment of luminescent signal. The IC50 values are determined using the four-parameter fit. The resulting IC50 value is a measurement of the ability of the compounds herein to reduce cell growth of Ras-driven cells as representative tumor cells.
For series [3] the following is noted: from C=CCCCCCn1c(=O)c(C2(C#N)CC2)cc2c(N[C@H](C)c3cccc(C(F)(F)C4CCN(CC=C)CC4)c3)ncnc21; rcm bond; Grubbs II catalyst; DCM; 1.41 mM; 40.0 °C.
Where [4] appears, read: read-out: IC50 value against SOS1.
Setting [5] is: 120 h, NCI-H1975 cell proliferation, approximately 5 days, read-out: H1975 IC50.
The mark [6] stands for this setting: NCI-H1975, EGFR T790M L858R double mutation, read-out: IC50 in inhibiting growth of NCI-H1975 cell line.

SOS1, sequence (Q07889 564-1049): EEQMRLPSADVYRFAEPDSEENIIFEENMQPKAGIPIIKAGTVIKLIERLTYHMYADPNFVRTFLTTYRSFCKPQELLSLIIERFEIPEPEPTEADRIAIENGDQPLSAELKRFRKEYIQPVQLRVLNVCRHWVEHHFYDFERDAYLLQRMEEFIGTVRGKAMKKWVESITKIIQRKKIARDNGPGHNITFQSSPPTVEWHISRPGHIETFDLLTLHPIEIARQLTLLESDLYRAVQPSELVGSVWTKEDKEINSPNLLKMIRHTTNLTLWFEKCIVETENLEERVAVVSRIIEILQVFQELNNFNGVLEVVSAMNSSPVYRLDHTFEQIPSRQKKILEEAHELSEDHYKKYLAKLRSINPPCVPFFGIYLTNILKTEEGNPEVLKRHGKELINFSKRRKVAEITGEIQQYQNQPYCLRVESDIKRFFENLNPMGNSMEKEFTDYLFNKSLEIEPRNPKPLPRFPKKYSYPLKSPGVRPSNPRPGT

Take `Cc1nc2c3cc(C4CCS(=O)(=O)CC4)c(=O)n(c3n1)CCCCCCCN1CCC(CC1)C(F)(F)c1cccc(c1)[C@@H](C)N2` [Compound 173, (4R)-6^6-(1,1-dioxidotetrahydro-2H-thiopyran-4-yl)-2,2-difluoro-6^2,4-dimethyl-6^7,6^8-dihydro-5-aza-6(4,8)-pyrido[2,3-d]pyrimidina-1(4,1)-piperidina-3(1,3)-benzenacyclotridecaphan-6^7-one]: the half-maximal inhibitory concentration (IC50) at SOS1 (setting [4]) was below 50 nM; at SOS1 (read-out: SOS1 IC50) it was below 100 nM; in series [1] (setting [5]), below 1000 nM; in series [1] (setting [6]), below 500 nM; in series [2] it was below 1000 nM.

In the case of `Cc1nc2c3cc(C4CCS(=O)(=O)CC4)c(=O)n(c3n1)CCCCC/C=C\CC(C)(O)C(F)(F)c1cccc(c1)[C@@H](C)N2` (stereo partly drawn) [Compound 101, (3R,Z)-1^6-(1,1-dioxidotetrahydro-2H-thiopyran-4-yl)-5,5-difluoro-6-hydroxy-1^2,3,6-trimethyl-1^7,1^8-dihydro-2-aza-1(4,8)-pyrido[2,3-d]pyrimidina-4(1,3)-benzenacyclotetradecaphan-8-en-1^7-one], the IC50 was below 50 nM on SOS1 (setting [4]); below 100 nM at SOS1 (read-out: SOS1 IC50); below 1000 nM in series [1] (setting [5]); below 500 nM in series [1] (setting [6]); below 1000 nM in series [2].

With `C[C@H]1Nc2nc(=O)n(c3c2cc(C2(C#N)CC2)c(=O)n3C)CC/C=C\CN2CCC(CC2)C(F)(F)c2cccc1c2` [Compound 6, 1-((6^3E,4R,9Z)-2,2-difluoro-6^8,4-dimethyl-6^2,6^7-dioxo-6^1,6^2,6^7,6^8-tetrahydro-5-aza-6(4,1)-pyrido[2,3-d]pyrimidina-1(4,1)-piperidina-3(1,3)-benzenacycloundecaphan-9-en-6^6-yl)cyclopropane-1-carbonitrile], the half-inhibitory concentration (IC50) on SOS1 (read-out: SOS1 IC50) was below 100 nM; in series [1] (setting [5]), below 1000 nM; in series [1] (setting [6]), below 500 nM; in series [2], below 1000 nM.

On to `Cc1nc2c3cc(C4(C#N)CC4)c(=O)n(c3n1)CCC/C=C\CN1CCC(CC1)C(F)(F)c1cccc(c1F)[C@@H](C)N2` [Compound 170, 1-((4R,Z)-3^2,2,2-trifluoro-6^2,4-dimethyl-6^7-oxo-6^7,6^8-dihydro-5-aza-6(4,8)-pyrido[2,3-d]pyrimidina-1(4,1)-piperidina-3(1,3)-benzenacyclododecaphan-10-en-6^6-yl)cyclopropane-1-carbonitrile], for which the half-maximal inhibitory concentration (IC50) is below 50 nM on SOS1 (setting [4]); below 100 nM at SOS1 (read-out: SOS1 IC50); below 1000 nM in series [1] (setting [5]); below 500 nM in series [1] (setting [6]); below 1000 nM in series [2].

`Cc1nc2c3cc(C4(C#N)CC4)c(=O)n(c3n1)CCCCCCCCC(C)(O)C(F)(F)c1cccc(c1)[C@@H](C)N2` (stereo partly drawn) [Compound 9, 1-((3R)-5,5-difluoro-6-hydroxy-1^2,3,6-trimethyl-1^7-oxo-1^7,1^8-dihydro-2-aza-1(4,8)-pyrido[2,3-d]pyrimidina-4(1,3)-benzenacyclotetradecaphane-1^6-yl)cyclopropane-1-carbonitrile]: the IC50 on SOS1 (read-out: SOS1 IC50) was 100 to 5000 nM; in series [1] (setting [5]), below 1000 nM; in series [2], below 1000 nM.

As for `C[C@H]1Nc2ncnc3c2cc(C2(C#N)CC2)c(=O)n3CCCCCCCCN2CCC(CC2)C(F)(F)c2cccc1c2` [Compound 54, 1-((4R)-2,2-difluoro-4-methyl-6^7-oxo-6^7,6^8-dihydro-5-aza-6(4,8)-pyrido[2,3-d]pyrimidina-1(4,1)-piperidina-3(1,3)-benzenacyclotetradecaphane-6^6-yl)cyclopropane-1-carbonitrile], the concentration for half-maximal inhibition (IC50) was below 1000 nM in series [1] (setting [5]), below 500 nM in series [1] (setting [6]) and below 1000 nM in series [2].

For `C[C@H]1Nc2ncnc3c2cc(C2(C#N)CC2)c(=O)n3CCCCCCCN2CCC(CC2)C(F)(F)c2cccc1c2` [Compound 61, 1-((4R)-2,2-difluoro-4-methyl-6^7-oxo-6^7,6^8-dihydro-5-aza-6(4,8)-pyrido[2,3-d]pyrimidina-1(4,1)-piperidina-3(1,3)-benzenacyclotridecaphane-6^6-yl)cyclopropane-1-carbonitrile], the IC50 on SOS1 (setting [4]) is below 50 nM; on SOS1 (read-out: SOS1 IC50), below 100 nM; in series [1] (setting [5]), below 1000 nM; in series [1] (setting [6]), below 500 nM; in series [2], below 1000 nM.

As for `Cc1nc2c3cc(C4CCS(=O)(=O)CC4)c(=O)n(c3n1)CCCC/C=C\CN1CCC(CC1)C(F)(F)c1cccc(c1)[C@@H](C)N2` [Compound 174, (4R,Z)-6^6-(1,1-dioxidotetrahydro-2H-thiopyran-4-yl)-2,2-difluoro-6^2,4-dimethyl-6^7,6^8-dihydro-5-aza-6 (4,8)-pyrido[2,3-d]pyrimidina-1(4,1)-piperidina-3(1,3)-benzenacyclotridecaphan-11-en-6^7-one], the half-inhibitory concentration (IC50) on SOS1 (setting [4]) was below 50 nM; at SOS1 (read-out: SOS1 IC50) it was below 100 nM; in series [1] (setting [5]) it was below 1000 nM; in series [1] (setting [6]), below 500 nM; in series [2], below 1000 nM.

`Cc1nc2c3cc(C4(C#N)CC4)c(=O)n(c3n1)CCCCC/C=C\CN1CCC(CC1)C(F)(F)c1cccc(c1)[C@@H](C)N2` [Compound 171, 1-((4R,Z)-2,2-difluoro-6^2,4-dimethyl-6^7-oxo-6^7,6^8-dihydro-5-aza-6(4,8)-pyrido[2,3-d]pyrimidina-1(4,1)-piperidina-3(1,3)-benzenacyclotetradecaphan-12-en-6^6-yl)cyclopropane-1-carbonitrile]: the IC50 at SOS1 (setting [4]) is below 50 nM; on SOS1 (read-out: SOS1 IC50), below 100 nM; in series [1] (setting [5]), below 1000 nM; in series [1] (setting [6]) it was below 500 nM; in series [2], below 1000 nM.

Take `C[C@H]1Nc2ncnc3c2cc(C2(C#N)CC2)c(=O)n3CCCCCC=CCN2CCC(CC2)C(F)(F)c2cccc1c2`: in series [3], the ring closure, yield of all isomers turned out to be 18.5%.

In the case of `C[C@H]1Nc2ncnc3c2cc(C2(C#N)CC2)c(=O)n3CCCCC/C=C\CN2CCC(CC2)C(F)(F)c2cccc1c2` [Compound 120, 1-((4R,Z)-2,2-difluoro-4-methyl-6^7-oxo-6^7,6^8-dihydro-5-aza-6(4,8)-pyrido[2,3-d]pyrimidina-1(4,1)-piperidina-3(1,3)-benzenacyclotetradecaphan-12-en-6^6-yl)cyclopropane-1-carbonitrile], the half-maximal inhibitory concentration (IC50) on SOS1 (setting [4]) was below 50 nM; on SOS1 (read-out: SOS1 IC50) it was below 100 nM; in series [1] (setting [5]) it was below 1000 nM; in series [1] (setting [6]) it was below 500 nM; in series [2], below 1000 nM.

On to `Cc1nc2c3cc(C4(C#N)CC4)c(=O)n(c3n1)CCCCCCCN1CCC(CC1)C(F)(F)c1cccc(c1F)[C@@H](C)N2` [Compound 167, 1-((4R)-3^2,2,2-trifluoro-6^2,4-dimethyl-6^7-oxo-6^7,6^8-dihydro-5-aza-6(4,8)-pyrido[2,3-d]pyrimidina-1(4,1)-piperidina-3(1,3)-benzenacyclotridecaphane-6^6-yl)cyclopropane-1-carbonitrile], for which the IC50 at SOS1 (setting [4]) is below 50 nM; at SOS1 (read-out: SOS1 IC50), below 100 nM; in series [1] (setting [5]) it was below 1000 nM; in series [1] (setting [6]), below 500 nM; in series [2] it was below 1000 nM.

On to `C[C@H]1Nc2ncnc3c2cc(C2CCS(=O)(=O)CC2)c(=O)n3CCCOCCCN2CCC(CC2)CC(F)(F)c2cccc1c2F` [Compound 191, (3R)-1^6-(1,1-dioxidotetrahydro-2H-thiopyran-4-yl)-4^2,5,5-trifluoro-3-methyl-1^7,1^8-dihydro-11-oxa-2-aza-1(4,8)-pyrido[2,3-d]pyrimidina-7(4,1)-piperidina-4(1,3)-benzenacyclotetradecaphan-1^7-one], for which the IC50 on SOS1 (read-out: SOS1 IC50) was below 100 nM; in series [1] (setting [5]), below 1000 nM.

Consider `CC(C)N1CCN(c2cc3c4ncnc3n(c2=O)CCCOCCCCN2CCC(CC2)C(F)(F)c2cccc(c2)[C@@H](C)N4)CC1` [Compound 190, (4R)-2,2-difluoro-6^6-(4-isopropylpiperazin-1-yl)-4-methyl-6^7,6^8-dihydro-10-oxa-5-aza-6(4,8)-pyrido[2,3-d]pyrimidina-1(4,1)-piperidina-3(1,3)-benzenacyclotetradecaphan-6^7-one], for which the IC50 on SOS1 (read-out: SOS1 IC50) was below 100 nM; in series [1] (setting [5]), below 1000 nM.

Regarding `C[C@H]1Nc2ncnc3c2cc(C2CCS(=O)(=O)CC2)c(=O)n3CCCCCC(C#N)CN2CCC(CC2)C(F)(F)c2cccc1c2` (stereo partly drawn) [Compound 114, (4R)-6^6-(1,1-dioxidotetrahydro-2H-thiopyran-4-yl)-2,2-difluoro-4-methyl-6^7-oxo-6^7,6^8-dihydro-5-aza-6(4,8)-pyrido[2,3-d]pyrimidina-1(4,1)-piperidina-3(1,3)-benzenacyclotridecaphane-12-carbonitrile], the IC50 on SOS1 (read-out: SOS1 IC50) is below 100 nM; in series [1] (setting [5]) it was below 1000 nM.

Consider `C[C@H]1Nc2ncnc3c2cc(C2(C#N)CCS(=O)(=O)CC2)c(=O)n3CCCCCCCN2CCC(CC2)C(F)(F)c2cccc1c2` [Compound 116, 4-((4R)-2,2-difluoro-4-methyl-6^7-oxo-6^7,6^8-dihydro-5-aza-6(4,8)-pyrido[2,3-d]pyrimidina-1(4,1)-piperidina-3(1,3)-benzenacyclotridecaphane-6^6-yl)tetrahydro-2H-thiopyran-4-carbonitrile 1,1-dioxide], for which the results for the half-inhibitory concentration (IC50) (at SOS1 (read-out: SOS1 IC50); in series [1] (setting [5])) were below 100 nM and below 1000 nM, respectively.

As to `C[C@H]1Nc2ncnc3c2cc(C2(C#N)CCOCC2)c(=O)n3CCCCCCCN2CCC(CC2)C(F)(F)c2cccc1c2` [Compound 76, 4-((4R)-2,2-difluoro-4-methyl-6^7-oxo-6^7,6^8-dihydro-5-aza-6(4,8)-pyrido[2,3-d]pyrimidina-1(4,1)-piperidina-3(1,3)-benzenacyclotridecaphane-6^6-yl)tetrahydro-2H-pyran-4-carbonitrile], the IC50 is below 100 nM at SOS1 (read-out: SOS1 IC50) and below 1000 nM in series [1] (setting [5]).
